Test results taken from paper PMC2951136 (Journal of neurochemistry, 2009).

Molecular target: human dopamine transporter (hDAT) (Homo sapiens, UniProt Q01959)
Assay: live-cell confocal imaging of ASP+ accumulation in hDAT-transfected EM4 cells
Format: cell-based

Chain of human dopamine transporter (hDAT) (Q01959 whole entry): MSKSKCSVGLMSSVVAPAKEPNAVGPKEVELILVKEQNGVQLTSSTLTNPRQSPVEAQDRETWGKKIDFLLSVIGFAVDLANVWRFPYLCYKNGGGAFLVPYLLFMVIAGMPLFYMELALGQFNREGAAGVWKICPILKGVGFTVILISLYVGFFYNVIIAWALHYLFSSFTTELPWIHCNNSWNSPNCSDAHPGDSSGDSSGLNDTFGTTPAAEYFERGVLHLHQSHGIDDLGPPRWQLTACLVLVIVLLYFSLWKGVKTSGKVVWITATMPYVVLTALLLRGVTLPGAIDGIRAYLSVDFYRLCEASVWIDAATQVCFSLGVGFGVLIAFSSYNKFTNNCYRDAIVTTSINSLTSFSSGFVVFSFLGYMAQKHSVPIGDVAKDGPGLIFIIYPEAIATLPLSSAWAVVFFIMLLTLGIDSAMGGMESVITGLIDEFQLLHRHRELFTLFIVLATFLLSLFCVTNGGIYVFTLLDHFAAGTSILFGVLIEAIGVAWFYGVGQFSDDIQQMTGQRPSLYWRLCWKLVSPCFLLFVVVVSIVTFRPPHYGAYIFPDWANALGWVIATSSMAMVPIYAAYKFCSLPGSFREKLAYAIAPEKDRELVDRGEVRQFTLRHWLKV

CCCCC/C=C\C/C=C\C/C=C\C/C=C\CCCC(=O)NCCO [AEA, anandamide]
IC50: 3.2 ± 0.8 µM
